{"source": "patent US12344595B2", "about": "“2-amino-n-phenyl-nicotinamides as NAV1.8 inhibitors” (Merck Sharp & Dohme LLC, priority 2018, dated 2025)", "data": [{"target": "human Nav1.8 (Homo sapiens (Human), UniProt Q9Y5Y9)", "sequence (Q9Y5Y9 whole entry)": "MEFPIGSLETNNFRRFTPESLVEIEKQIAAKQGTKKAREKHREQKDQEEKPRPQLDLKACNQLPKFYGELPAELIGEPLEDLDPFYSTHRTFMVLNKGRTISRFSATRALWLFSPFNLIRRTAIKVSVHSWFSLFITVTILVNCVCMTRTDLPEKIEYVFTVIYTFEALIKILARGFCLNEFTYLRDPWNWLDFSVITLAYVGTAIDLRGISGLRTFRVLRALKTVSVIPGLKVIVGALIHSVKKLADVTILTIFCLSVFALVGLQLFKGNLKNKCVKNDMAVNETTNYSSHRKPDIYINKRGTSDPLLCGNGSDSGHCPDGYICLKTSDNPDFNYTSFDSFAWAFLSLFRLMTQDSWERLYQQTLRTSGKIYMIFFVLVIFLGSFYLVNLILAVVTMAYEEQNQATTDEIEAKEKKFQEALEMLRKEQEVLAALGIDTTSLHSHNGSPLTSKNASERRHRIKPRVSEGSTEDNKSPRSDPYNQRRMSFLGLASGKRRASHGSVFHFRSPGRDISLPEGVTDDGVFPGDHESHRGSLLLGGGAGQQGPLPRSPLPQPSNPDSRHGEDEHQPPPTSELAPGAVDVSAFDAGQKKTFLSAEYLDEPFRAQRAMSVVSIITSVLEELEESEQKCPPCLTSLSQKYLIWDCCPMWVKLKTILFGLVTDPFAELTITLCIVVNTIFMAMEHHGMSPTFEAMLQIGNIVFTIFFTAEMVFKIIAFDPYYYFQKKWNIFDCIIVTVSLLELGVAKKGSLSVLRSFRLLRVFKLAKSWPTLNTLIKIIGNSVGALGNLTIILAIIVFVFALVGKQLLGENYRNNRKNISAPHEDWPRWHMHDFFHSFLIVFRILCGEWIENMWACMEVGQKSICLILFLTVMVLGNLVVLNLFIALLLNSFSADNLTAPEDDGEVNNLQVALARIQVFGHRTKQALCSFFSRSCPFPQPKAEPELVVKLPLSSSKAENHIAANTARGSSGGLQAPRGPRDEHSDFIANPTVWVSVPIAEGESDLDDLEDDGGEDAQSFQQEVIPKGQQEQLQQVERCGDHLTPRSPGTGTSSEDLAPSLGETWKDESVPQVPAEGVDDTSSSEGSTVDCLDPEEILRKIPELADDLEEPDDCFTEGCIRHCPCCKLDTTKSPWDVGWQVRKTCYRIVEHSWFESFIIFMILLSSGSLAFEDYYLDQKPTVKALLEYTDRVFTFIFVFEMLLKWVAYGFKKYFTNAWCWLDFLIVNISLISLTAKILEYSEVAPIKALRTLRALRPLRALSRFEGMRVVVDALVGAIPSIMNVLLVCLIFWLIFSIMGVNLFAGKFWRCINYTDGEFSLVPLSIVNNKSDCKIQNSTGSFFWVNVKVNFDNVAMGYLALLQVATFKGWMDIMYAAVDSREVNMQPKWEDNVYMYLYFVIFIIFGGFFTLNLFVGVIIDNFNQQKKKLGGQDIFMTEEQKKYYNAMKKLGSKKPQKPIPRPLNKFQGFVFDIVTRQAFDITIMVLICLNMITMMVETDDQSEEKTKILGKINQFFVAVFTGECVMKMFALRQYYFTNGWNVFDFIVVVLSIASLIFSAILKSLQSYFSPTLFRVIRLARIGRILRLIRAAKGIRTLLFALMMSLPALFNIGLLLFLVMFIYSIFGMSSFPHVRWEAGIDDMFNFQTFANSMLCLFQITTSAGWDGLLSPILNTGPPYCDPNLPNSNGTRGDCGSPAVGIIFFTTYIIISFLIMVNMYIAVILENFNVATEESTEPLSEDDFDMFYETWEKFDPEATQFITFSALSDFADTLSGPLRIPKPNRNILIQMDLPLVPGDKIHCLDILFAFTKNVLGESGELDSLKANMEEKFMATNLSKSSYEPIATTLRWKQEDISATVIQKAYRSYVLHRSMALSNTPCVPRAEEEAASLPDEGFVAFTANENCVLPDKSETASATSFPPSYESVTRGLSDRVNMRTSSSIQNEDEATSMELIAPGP", "experiment": "Nav1.8 Qube automated patch-clamp assay", "type": "cell-based", "details": "Nav1.8 Qube Assay; human Nav1.8 channels stably expressed in HEK 293 cells", "procedure": "Qube® Assay Experimental Procedure\nCompounds were tested on human Nav1.8 and Nav1.5 channels stably expressed in human embryo kidney (HEK) 293 cells. Sodium current measurements on Qube® were conducted as follows: automated 384-well patch-clamp assays on the Qube® platform (Sophion Biosciences) were used to measure the inhibition of sodium flow through human Nav1.8 and Nav1.5 channels. Whole-cell voltage-clamp recordings were performed in QChips® (Sophion Biosciences) at room temperature. Nav1.8 current measurements on Qube® were obtained as follows: Nav1.8 currents were elicited with a 10 second 1 Hertz (Hz) pulse train from a holding potential of −90 millivolts (mV), delivered to the cells once per minute in the control condition (DMSO only) and after compound addition. The 1 hertz pulse train stimulation consisted of ten test pulses to 10 millivolt (mV) for 20 milliseconds (ms), each of which was followed by a 980 millisecond repolarization to −67 millivolts. At the end of the 10 second pulse train stimulation, a 5 second hyperpolarization step to −100 millivolt (mV) was used to recover Nav1.8 from fast inactivation. The peak currents elicited by the 1st and 10th test pulses were used to determine IC50 values for resting inhibition and inactivated state inhibition. Nav1.5 current measurements on Qube® were obtained as follows: Nav1.5 currents were elicited with a 20 second 3 Hertz pulse train in the control condition (DMSO only) and after compound addition. The pulse train consisted of sixty 20 millisecond test pulses to 0 millivolt from a holding potential of −80 millivolt (mV). The average peak currents elicited by the last 3 test pulses were used to determine IC50 values for Nav1.5 inhibition.\nThe following buffers were used for the Qube® recordings: External buffer for Nav1.8 Qube® recording: 150 NaCl, 2 CaCl2, 5 KCl, 1 Mg Cl2, 10 HEPES, 12 Dextrose; External buffer for Qube® Nav1.5 recording: 120 N-Methyl-D-Glucamine, 40 NaCl, 1 KCl, 2.7 CaCl2, 5 HEPES, 0.5 MgCl2; and Internal buffer for Qube® recording: 120 CsF, 30 CsCl, 10 EGTA, 5 HEPES, 5 NaF, 2 MgCl2.\nFor all Qube® experiments offline analysis was used to determine percent inhibition as a function of drug concentration. IC50 values were determined by fitting to the Hill equation.", "units": {"IC50": "nM"}, "values": [{"smiles": "CC(C)CC1CCCCCN1c1ncc(C(F)(F)F)cc1C(=O)Nc1cccc(S(N)(=O)=O)c1", "note": "(stereo not drawn) [Example 68, 2-(2-isobutylazepan-1-yl)-N-(3-sulfamoyl-phenyl)-5-(trifluoro-methyl)pyridine-3-carboxamide]", "IC50": 3650}, {"smiles": "NS(=O)(=O)c1cccc(NC(=O)c2cc(C(F)(F)F)cnc2N2CCO[C@@H](C(F)(F)F)C2)c1", "note": "[Example 141, N-(3-sulfamoylphenyl)-5-(trifluoromethyl)-2-[(2R)-2-(trifluoro-methyl)morpholin-4-yl]pyridine-3-carboxamide]", "IC50": 553}, {"smiles": "CS(=O)(=O)c1cccc(NC(=O)c2cc(C(F)(F)F)cnc2N2CC3CCC(F)(F)C3C2)c1", "note": "(stereo not drawn) [Example 96, 2-(4,4-difluoro-1,3,3a,5,6,6a-hexahydrocyclopenta[c]pyrrol-2-yl)-N-(3-methylsulfonylphenyl)-5-(trifluoromethyl)-pyridine-3-carboxamide]", "IC50": 40}, {"smiles": "COc1ccc(C(=O)Nc2cccc(S(N)(=O)=O)c2)c(N2CCCCCC2)n1", "note": "[Example 91, 2-(azepan-1-yl)-6-methoxy-N-(3-sulfamoyl-phenyl)pyridine-3-carboxamide]", "IC50": 29}, {"smiles": "CC1CN(c2ncc(C(F)(F)F)cc2C(=O)Nc2ccc3c(c2)S(=O)(=O)NC3)CCC1(F)F", "note": "(single isomer, unassigned) [Example 112, 2-[(3R or 3S)-4,4-difluoro-3-methyl-1-piperidyl]-N-(1,1-dioxo-2,3-dihydro-1,2-benzothiazol-6-yl)-5-(trifluoromethyl) pyridine-3-carboxamide]", "IC50": 72}, {"smiles": "NS(=O)(=O)c1cccc(NC(=O)c2cc(C(F)(F)F)cnc2N2CC3CCC(C3)C2)c1", "note": "(racemic) [Example 45, 2-[rac-3-azabicyclo[3.2.1]octan-3-yl]-N-(3-sulfamoyl-phenyl)-5-(trifluoro-methyl)pyridine-3-carboxamide]", "IC50": 12}, {"smiles": "NC(=O)c1cccc(NC(=O)c2ccc(C(F)(F)F)nc2N2CCC3(CC2)CC3)c1", "note": "[Example 83, N-(3-carbamoyl-phenyl)-2-(6-azaspiro[2.5]octan-6-yl)-6-(trifluoro-methyl)-nicotinamide]", "IC50": 180}, {"smiles": "Cc1cnc(N2CCCCCC2)c(C(=O)Nc2cccc(S(N)(=O)=O)c2)c1", "note": "[Example 23, 2-(azepan-1-yl)-5-methyl-N-(3-sulfamoyl-phenyl)nicotinamide]", "IC50": 112}, {"smiles": "Cc1nc(N2CCCCCC2)c(C(=O)Nc2cccc(S(N)(=O)=O)c2)c(C)c1Cl", "note": "[Example 2, 2-(azepan-1-yl)-5-chloro-4,6-dimethyl-N-(3-sulfamoylphenyl)nicotinamide]", "IC50": 0.7}, {"smiles": "NS(=O)(=O)c1cccc(NC(=O)c2cc(C(F)(F)F)cnc2N2CCNC(C(F)(F)F)C2)c1", "note": "(stereo not drawn) [Example 143, N-(3-sulfamoylphenyl)-5-(trifluoromethyl)-2-[3-(trifluoromethyl)-piperazin-1-yl]pyridine-3-carboxamide]", "IC50": 2180}, {"smiles": "CC1(O)CCCN(c2ncc(C(F)(F)F)cc2C(=O)Nc2cccc(S(N)(=O)=O)c2)CC1", "note": "(stereo not drawn) [Example 53, 2-(4-hydroxy-4-methyl-azepan-1-yl)-N-(3-sulfamoylphenyl)-5-(trifluoromethyl)-pyridine-3-carboxamide]", "IC50": 304}, {"smiles": "NS(=O)(=O)c1c(F)ccc(NC(=O)c2cc(C(F)(F)F)cnc2N2CCC(F)(F)CC2)c1F", "note": "[Example 28, N-(2,4-difluoro-3-sulfamoylphenyl)-2-(4,4-difluoropiperidin-1-yl)-5-(trifluoromethyl)nicotinamide]", "IC50": 211}, {"smiles": "NS(=O)(=O)c1ccc(O)c(NC(=O)c2cc(C(F)(F)F)cnc2N2CCCCCC2)c1", "note": "[Example 25, 2-(azepan-1-yl)-N-(2-hydroxy-5-sulfamoyl-phenyl)-5-(trifluoro-methyl)pyridine-3-carboxamide]", "IC50": 337}, {"smiles": "C[C@H]1CN(c2ncc(C(F)(F)F)cc2C(=O)Nc2cccc(S(N)(=O)=O)c2)C[C@H](C(F)(F)F)O1", "note": "[Example 145, 2-[(2S,6R)-2-methyl-6-(trifluoromethyl)morpholin-4-yl]-N-(3-sulfamoyl-phenyl)-5-(trifluoro-methyl)pyridine-3-carboxamide]", "IC50": 15}, {"smiles": "NS(=O)(=O)c1cccc(NC(=O)c2cc(C(F)(F)F)cnc2N2CCCC(F)(F)C2)c1", "note": "[Example 51, 2-(3,3-difluoro-1-piperidyl)-N-(3-sulfamoylphenyl)-5-(trifluoromethyl)-pyridine-3-carboxamide]", "IC50": 244}, {"smiles": "O=C(Nc1cccc(S(=O)(=O)C2CCCC2)c1)c1cc(C(F)(F)F)cnc1N1CCCCCC1", "note": "[Example 120, 2-(azepan-1-yl)-N-(3-cyclopentylsulfonylphenyl)-5-(trifluoro-methyl)-pyridine-3-carboxamide]", "IC50": 3020}, {"smiles": "CS(=O)(=O)c1cccc(NC(=O)c2cc(C(F)(F)C(F)(F)F)cnc2N2CCCCCC2)c1", "note": "[Example 166, 2-(azepan-1-yl)-N-(3-methylsulfonylphenyl)-5-(1,1,2,2,2-penta-fluoroethyl)pyridine-3-carboxamide]", "IC50": 30}, {"smiles": "NS(=O)(=O)c1cccc(NC(=O)c2cc(C(F)(F)F)cnc2N2CCO[C@H](C(F)(F)F)C2)c1", "note": "[Example 140, N-(3-sulfamoylphenyl)-5-(trifluoromethyl)-2-[(2S)-2-(trifluoro-methyl)--morpholin-4-yl]pyridine-3-carboxamide]", "IC50": 83}, {"smiles": "CC1CN(c2ncc(C(F)(F)F)cc2C(=O)Nc2ccc3c(c2)S(=O)(=O)NC3)CCC1(F)F", "note": "(single isomer, unassigned) [Example 113, 2-[(3S or 3R)-4,4-difluoro-3-methyl-1-piperidyl]-N-(1,1-dioxo-2,3-dihydro-1,2-benzothiazol-6-yl)-5-(trifluoromethyl) pyridine-3-carboxamide]", "IC50": 73}, {"smiles": "Cc1ccc(C(=O)Nc2cccc(S(C)(=O)=O)c2)c(N2CCCC(F)(F)CC2)n1", "note": "[Example 10, 2-(4,4-difluoroazepan-1-yl)-6-methyl-N-(3-methylsulfonylphenyl) pyridine-3-carboxamide]", "IC50": 9.2}, {"smiles": "NS(=O)(=O)c1cccc(NC(=O)c2cc(C(F)(F)F)cnc2N2CCCC[C@H](F)C2)c1", "note": "[Example 54, 2-[(3S)-3-fluoroazepan-1-yl]-N-(3-sulfamoyl-phenyl)-5-(trifluoro-methyl)pyridine-3-carboxamide]", "IC50": 338}, {"smiles": "NS(=O)(=O)c1cccc(NC(=O)c2cc(C(F)(F)F)cnc2N2CCC(F)(F)C2)c1", "note": "[Example 60, 2-(3,3-difluoropyrrolidin-1-yl)-N-(3-sulfamoyl-phenyl)-5-(trifluoromethyl) pyridine-3-carboxamide]", "IC50": 737}, {"smiles": "CC1(C)CCCN(c2ncc(C(F)(F)F)cc2C(=O)Nc2cccc(S(N)(=O)=O)c2)CC1", "note": "[Example 80, 2-(4,4-dimethylazepan-1-yl)-N-(3-sulfamoyl-phenyl)-5-(trifluoro-methyl)nicotinamide]", "IC50": 11}, {"smiles": "O=C(Nc1cccc(S(=O)(=O)N2CCCC2)c1)c1cc(C(F)(F)F)cnc1N1CCCCCC1", "note": "[Example 24, 2-(azepan-1-yl)-N-(3-pyrrolidin-1-yl-sulfonylphenyl)-5-(trifluoromethyl)-pyridine-3-carboxamide]", "IC50": 4430}, {"smiles": "NS(=O)(=O)c1cccc(NC(=O)c2cc(C(F)(F)F)cnc2N2CCCOCC2)c1", "note": "[Example 56, 2-(1,4-oxazepan-4-yl)-N-(3-sulfamoylphenyl)-5-(trifluoromethyl)-pyridine-3-carboxamide]", "IC50": 448}, {"smiles": "CS(=O)(=O)c1cccc(NC(=O)c2cc(C(F)(F)F)cnc2N2CCCC(F)(F)CC2)c1", "note": "[Example 94, 2-(4,4-difluoroazepan-1-yl)-N-(3-methylsulfonylphenyl)-5-(trifluoromethyl)-pyridine-3-carboxamide]", "IC50": 8.4}, {"smiles": "CS(=O)(=O)c1cccc(NC(=O)c2cc(C(F)(F)F)cnc2N2Cc3ccccc3C2)c1", "note": "[Example 103, 2-isoindolin-2-yl-N-(3-methylsulfonylphenyl)-5-(trifluoromethyl)-pyridine-3-carboxamide]", "IC50": 2330}, {"smiles": "NS(=O)(=O)c1cccc(NC(=O)c2cc(C(F)(F)F)cnc2N2CC3CCC3(C(F)(F)F)C2)c1", "note": "(single isomer, unassigned) [Example 130, N-(3-sulfamoylphenyl)-5-(trifluoromethyl)-2-[(1R,5R or 1S,5S)-1-(trifluoromethyl)-3-azabicyclo[3.2.0]heptan-3-yl]pyridine-3-carboxamide]", "IC50": 16}, {"smiles": "Cc1ccc(C(=O)Nc2cccc(C(N)=O)c2)c(N2CCCC(F)(F)CC2)n1", "note": "[Example 75, N-(3-carbamoylphenyl)-2-(4,4-difluoroazepan-1-yl)-6-methylnicotinamide]", "IC50": 16}, {"smiles": "Cc1c(F)c(Cl)nc(N2CCCCCC2)c1C(=O)Nc1cccc(S(N)(=O)=O)c1", "note": "[Example 3, 2-(azepan-1-yl)-6-chloro-5-fluoro-4-methyl-N-(3-sulfamoyl-phenyl)pyridine-3-carboxamide]", "IC50": 7.6}]}]}
